Patent publication US20040259913A1, “Diamide invertebrate pest control agents” (priority 2002, published 2004)

Test system: beet armyworm (Spodoptera exigua)
Experiment: Test C: control of beet armyworm on corn (maize) plant, foliar spray
Assay type: in vivo
Conditions: sprayed at 50 ppm; corn (maize) plant pre-infested with 10-15 1-day-old larvae; visually rated as in Test A
Procedure: Test compounds were formulated using a solution containing 10% acetone, 90% water and 300 ppm X-77® Spreader Lo-Foam Formula non-ionic surfactant containing alkylarylpolyoxyethylene, free fatty acids, glycols and isopropanol (Loveland Industries, Inc.), unless otherwise indicated. The formulated compounds were applied in 1 mL of liquid through a SUJ2 atomizer nozzle with ⅛ JJ custom body (Spraying Systems Co,) positioned 1.27 cm (0.5 inches) above the top of each test unit. All experimental compounds in this screen were sprayed at 250 ppm and replicated three times. After spraying of the formulated test compound, each test unit was allowed to dry for 1 hour and then a black, screened cap was placed on top. The test units were held for 6 days in a growth chamber at 25° C. and 70% relative humidity. Plant feeding damage was then visually assessed. For evaluating control of beet armyworm (Spodoptera exigua) the test unit consisted of a small open container with a 4-5-day-old corn (maize) plant inside. This was pre-infested with 10-15 1-day-old larvae on a piece of insect diet by use of a core sampler as described for Test A. Test compounds were formulated and sprayed at 50 ppm as described for Test A. The applications were replicated three times. After spraying, the test units were maintained in a growth chamber and then visually rated as described for Test A.

For `CC1=C(NC(=O)c2cc(C(F)(F)F)nn2-c2ncccc2Cl)C(C(=O)NC(C)C)CS1` (stereo not shown) [Compound 1, 1-(3-Chloro-2-pyridinyl)-N-[4,5-dihydro-2-methyl-4-[[(1-methylethyl)amino]carbonyl]-3-thienyl]-3-(trifluoromethyl)-1H-pyrazole-5-carboxamide], the “feeding damage (very good levels of plant protection)” value was at most 20%.
